Reference: US20260258378A1, “GLYCOSYLTRANSFERASE ENGINEERING FOR CHEMOENZYMATIC TOTAL SYNTHESIS OF GANGLIOSIDES” (priority 2022, published 2026)

Key:
Format in all cases: biochemical, Campylobacter jejuni
MBP-CjCgtBΔ30-His6 [1] = experiment: Effects of divalent metal cations, EDTA and DTT on enzyme activity; details: pH 7.5, Tris-HCl buffer (100 mM); DTT 10 mM
Experimental: (§1) The enzymatic assays were carried out in duplicate at 37° C. for 10 minutes in a reaction mixture (10 μL) containing the donor substrate (1.5 mM, UDP-GalNAc for MBP-Δ15CjCgtA-His6 and UDP-Gal for MBP-CjCgtBΔ30-His6), an acceptor substrate (1 mM, GM3βNHCbz for MBP-Δ15CjCgtA-His6 and GM2βNHCbz for MBP-CjCgtBΔ30-His6), Tris-HCl buffer (100 mM, pH 7.5), a metal cation (10 mM, MgCl2 for MBP-Δ15CjCgtA-His6 and MnCl2 for MBP-CjCgtBΔ30-His6), and the enzyme (0.32 μM for MBP-Δ15CjCgtA-His6 and 4 μM for MBP-CjCgtBΔ30-His6). The reactions were stopped by adding 10 μL of ice-cold methanol followed by incubation of the mixture on ice for 20 minutes and centrifugation at 16200 g for 5 minutes. The supernatant (about 20 μL) was transferred into another tube containing ddH2O (40 μL) and the resulting mixture was analyzed by liquid chromatography-mass spectrometry (LC-MS) (SHIMADZU LCMS-2020 system with electrospray ionization) for confirming the product and ultra-high-performance liquid chromatography (UHPLC) (monitored at 215 nm on an Agilent Infinity 1290 II HPLC system equipped with 1260 Infinity II Diode Array Detector WR) for reaction yield determination. The column used for the UHPLC analysis was Dionex™ CarboPac™ PA-100 (1.8 μm particle, 4×250 mm, Thermo Scientific, CA) for both glycosyltransferases. A gradient flow (100% water to 70% water/30% 1 M NaCl in 16 min) was used for analyzing the reactions catalyzed by MBP-Δ15CjCgtA-His6 and a different gradient flow (100% water to 75% water/[…] in 16 min) was used for analyzing MBP-CjCgtBΔ30-His6-catalyzed reactions. The flow rate was 0.75 mL min^−1.
(§2) The effect of various metal ions, the chelating reagent EDTA, and the reducing reagent DTT on the enzyme activity of MBP-Δ15CjCgtA-His6 and MBP-CjCgtBΔ30-His6 were examined at pH 7.5 in a Tris-HCl buffer (100 mM). Reactions without metal ions were used as controls.

MBP-Δ15CjCgtA-His6 [2] = experiment: as above; details: pH 7.5, Tris-HCl buffer (100 mM); DTT 10 mM
Experimental: as §1, §2

MBP-Δ15CjCgtA-His6 [3] = experiment: Effects of detergents on MBP-Δ15CjCgtA-His6-catalyzed OPME formation of GM2βSph; details: glycosphingosine acceptor, HRMS; sodium cholate 8-10 mM; Triton X-100 10 mM
Experimental: Assays were carried out at 30° C. for 12 hours in a total volume of 10 μL in Tris-HCl buffer (100 mM, pH 7.5) containing a GM3βSph (10 mM), GalNAc (15 mM), ATP (15 mM), UTP (15 mM), MgCl2 (20 mM), BLNahK (2 μg), PmGlmU (2 μg), MBP-Δ15CjCgtA-His6 (3 μg), PmPpA (1 μg), and various concentrations (0, 1, 2, 4, 5, 8, 10, 15, 18 mM) of sodium cholate or Triton X-100 (1, 5, 10, 15 mM). Reactions were quenched by addition of 10 μL of pre-chilled ethanol and the mixtures were incubated at 0° C. for 30 min, centrifuged, and the supernatant were analyzed by high resolution mass spectrometry (HRMS).
(§3) Glycosphingosines are much weaker acceptor substrates than the corresponding glycans for both CjCgtA and CjCgtB. This property made it prohibitive for synthesizing GM2βSph and GM1βSph in large-scales using the OPME strategy. […] The effects of these detergents in influencing the activities of both MBP-Δ15CjCgtA-His6 and MBP-CjCgtBΔ30-His6 in using glycosphingosine acceptor substrates and the reactions were analyzed by high-resolution mass spectrometry (HRMS).

MBP-CjCgtBΔ30-His6 [4] = experiment: Effects of detergents on MBP-CjCgtBΔ30-His6 with glycosphingosine acceptor substrates; details: HRMS, sodium cholate 8-10 mM, Triton X-100 10 mM
Experimental: as §3

| Molecule | effect on the enzyme activity of MBP-CjCgtBΔ30-His6 (MBP-CjCgtBΔ30-His6 [1]) | effect on the enzyme activity of MBP-Δ15CjCgtA-His6 (MBP-Δ15CjCgtA-His6 [2]) | effect of detergent on reaction yield / enzyme activity (MBP-Δ15CjCgtA-His6 [3]) | effect of detergent on reaction yield / enzyme activity (MBP-CjCgtBΔ30-His6 [4]) |
| --- | --- | --- | --- | --- |
| O[C@H](CS)[C@H](O)CS (racemic) [dithiothreitol] | improved the activity | deactivated |  |  |
| [Ca+2] [Ca^2+] | not | suitable |  |  |
| [Mg+2] [Mg^2+] | less effective | equally effective |  |  |
| [Mn+2] [Mn^2+] | preferred cation |  |  |  |
| C[C@H](CCC(=O)[O-])[C@H]1CC[C@H]2[C@@H]3[C@H](O)C[C@@H]4C[C@H](O)CC[C@]4(C)[C@H]3C[C@H](O)[C@]12C.[Na+] [sodium cholate] |  |  | greatly enhanced | greatly enhanced |
| Triton X-100 |  |  | improved | improved |
